Measured values taken from patent US12404294B2, “Glycolipopeptide biosurfactants” (Croda International Plc, priority 2016, dated 2025).
In brackets after ≈: the same amount, converted by molar mass.

Tests used:
[1] = Critical micelle concentration and surface tension of water, Du Nouy method (Kibron Delta-8 microtensiometer); assay type: physicochemical; settings: for CMC: degassed deionized water, 24-25° C.; for Minimum Surface Tension: surface tension of water at CMC (water 72 mN/m)
Method: As summarized in Table 1, the critical micelle concentrations (CMCs) of NB-RLP1006, NB-RLP978, NB-RLP860, and NB-RLP-1048B were determined by the Du Nouy method utilizing a Kibron Delta-8 multichannel microtensiometer (Kibron Inc., Helsinki, Finland). All samples were prepared in degassed deionized water (Millipore, Etobicoke, ON, CA) at concentrations ranging from 0 to 2.0 mM. All measurements were recorded between 24 and 25° C. and performed in duplicate. The critical micelle concentration of both NB-RLP1006 and NB-RLP978 was 0.20 mM (0.02 wt %). […] The surface activity of NB-RLP1006 was compared to rhamnolipids A and B, which were purified from a commercially available rhamnolipid mixture (R90; AGAE Technologies, Corvallis, OR, USA) by reversed-phase HPLC.

[2] = system: adult epidermal keratinocytes (HEKa); test: Cytotoxicity testing, alamarBlue, HEKa cells; assay type: cell-based, human; settings: 24 h treatment; for HEKa (MIC90): 90% of growth inhibition; for IC50: Homo sapiens, HEKa
Method: (§1) To evaluate the safety profile of the glycolipopeptides, cytotoxicity testing was conducted against two normal human cell lines, BJ fibroblast cells ATCC CRL-2522 and adult epidermal keratinocytes (HEKa; Life Technologies, Carlsbad, CA, USA). […] Life Technologies, Carlsbad, CA, USA) and 50 μg/mL gentamicin (Sigma-Aldrich, St. Louis, MO, USA). Cells were cultured in […]^2 cell culture flasks and incubated at 37° C. in a humidified atmosphere of 5% CO2. For BJ fibroblasts culture media was refreshed every two to three days and cells were not allowed to exceed 80% confluence. […] At 80% confluence, the cells were counted, diluted to 10,000 cells/well in growth medium lacking antibiotics and 90 μL of cell suspension was transferred into the wells of 96-well treated cell culture plates. The plates were incubated as before to allow cells to adhere to the plates for 24 h before treatment. DMSO was used as the vehicle at a final concentration of 1%. […] The fibroblasts and HEKa cells were incubated as previously described for 24 h. All samples were tested in triplicate. […] AlamarBlue (Life Technologies, Carlsbad, CA, USA) was added to each well 24 h after treatment (10% v/v). Fluorescence (560/12 excitation, 590 nm emission) was monitored using a Varioskan Flash Multimode plate reader both at time zero and 4 h after the addition of alamarBlue. After subtraction of fluorescence at time zero from 4 h readings the percentage of cell viability relative to vehicle control wells was calculated.

[3] = system: BJ fibroblast cells ATCC CRL-2522; test: Cytotoxicity testing, alamarBlue, BJ fibroblasts; assay type: cell-based, human; settings: 24 h treatment; for BJ (MIC90): 90% of growth inhibition; for IC50: Homo sapiens, Fibroblast
Method: as §1

[4] = Aqueous solubility (remark); assay type: physicochemical; settings: in words
[5] = Characteristic curvature (Cc) by HLD-NAC model, electrolyte scan with SDHS/toluene; assay type: physicochemical; settings: NB-RLP1006/SDHS mixtures, toluene oil phase, NaCl 0 to 6.0% (w/v)
Method: The characteristic curvature (Cc) of NB-RLP1006 was determined using the hydrophilic-lipophilic difference-net average curvature (HLD-NAC) model to calculate the shift in chemical potential when NB-RLP1006 is transferred from the oil to the aqueous phase as a function of salinity by the following general equation: HLD=F(S)−k×EACN+F(A)−∝×ΔT+Cc where F(S) is a function of salinity, k is a coefficient equal to 0.17, EACN (effective alkane carbon number) is the number of carbons in the alkane oil phase, α is a coefficient dependent on the type of surfactant (ionic, ethoxylates, etc), and ΔT is the effect of temperature. Four mixtures of NB-RLP1006 and sodium dihexyl sulfosuccinate (SDHS) were prepared with a total surfactant concentration of 1.8 mg/mL using the following NB-RLP1006/SDHS ratios: 0, 12, 24, and 40 wt % NB-RLP1006. An electrolyte scan was performed for each mixture by varying the NaCl concentration from 0 to 6.0% (w/v). Each mixture was added to an equal volume of toluene, which constituted the oil phase, and shaken vigorously. […] A plot of the NB-RLP1006/SDHS molar ratios versus S* was generated and Cc was calculated from the line of best fit. The Cc value for NB-RLP1006 was determined to be +5.2, a value that reflects the hydrophobic nature of this biosurfactant.

[6] = Emulsification activity assay (emulsification index E24, kerosene); assay type: physicochemical
Method: V. paradoxus RKNM-096 was identified as a biosurfactant producer in a screen aimed at identifying bacterial producers of biosurfactants with emulsifying properties. The assay utilized to identify bacterial producers of biosurfactants was the emulsification activity assay. In this assay cultures were grown in 10 mL of liquid medium in 25 mm×150 mm glass tubes at 30° C. with shaking at 200 rpm for 5 days. After 5 days, the cells were removed by centrifugation and 3.5 mL of cell free culture broth was mixed with 3.5 mL of kerosene in a 13 mm×100 mm test tube with a screw cap tube. The tubes were vortexed for two minutes and then allowed to stand overnight at room temperature after which the height of the emulsion (hemuls) and the total height (htotal) of the liquid in the tube were measured. The emulsification index (E24) was calculated using the equation E24=hemuls/htotal×100%.
(§2) The emulsifying properties of NB-RLP1006 were determined using the emulsification index as described above. […] The emulsification of NB-RLP1006 is pH-dependent with E24 values of 8, 38, and 31% at pH 3, 6, and 8, respectively. The type of emulsion formed by NB-RLP1006 (e.g. oil-in-water or water-in-oil) was determined using the drop dilution test. An emulsion was formed by vigorously mixing a 1 mg/mL solution of RLP1006 in deionized water with an equal volume of kerosene for 1 min. A portion (20 μL) of the emulsion was transferred to 0.5 mL of deionized water and 0.5 mL of kerosene and dilution of the emulsion in each liquid was monitored.

[7] = Drop dilution test for type of emulsion; assay type: physicochemical; settings: 1 mg/mL in deionized water with equal volume of kerosene
Method: as §2

Row | Compound | CMC [1] | CMC ([1]; duplicate) | Minimum Surface Tension [1] | HEKa (MIC90) [2] | IC50 ([2]; error is standard deviation) | BJ (MIC90) [3] | IC50 ([3]; error is standard deviation) | aqueous solubility [4] | characteristic curvature (Cc) [5] | emulsification index (E24) ([6]; 1 mg/mL in deionized water) | emulsification index (E24) ([6]; pH 3) | emulsification index (E24) ([6]; pH 6) | emulsification index (E24) ([6]; pH 8) | type of emulsion formed [7] | HEKa (IC50) ([2]; error is standard deviation) | BJ (IC50) ([3]; error is standard deviation)
1 | CCCCCCCC(CC(=O)NC(CO)C(=O)NC(CO)CC(C)C)OC(=O)CC(CCCCCCC)OC(=O)CC(CCCCCCC)OC1OC(C)C(O)C(O)C1O (stereo not drawn) [NB-RLP860] | 0.07 wt % | 0.85 mM | 36.2 mN/m | 128 µg/mL | 15.5 ± 1.6 µg/mL (≈ 18 µM) | 32 µg/mL | 16.3 ± 0.3 µg/mL (≈ 18.9 µM) | poor aqueous solubility | – | – | – | – | – | – | – | –
2 | CCCC(CC(=O)NC(CO)C(=O)NC(CO)CC(C)C)OC(=O)CC(CCC)OC(=O)CC(CCC)OC1OC(C)C(O)C(OC2OC(C)C(O)C(O)C2O)C1O (stereo not drawn) [NB-RLP978] | 0.02 wt % | 0.20 mM | 35.5 mN/m | – | – | – | – | – | – | – | – | – | – | – | – | –
3 | CCCCCCCC(CC(=O)NC(CO)C(=O)NC(CO)CC(C)C)OC(=O)CC(CCCCCCC)OC(=O)CC(CCCCCCC)OC1OC(C)C(O)C(OC2OC(C)C(O)C(O)C2O)C1O (stereo not drawn) [NB-RLP1006] | 0.02 wt % | 0.20 mM | 35.5 mN/m | 64 to 128 µg/mL | 15.5 ± 1.7 µg/mL (≈ 15.4 µM) | 32 µg/mL | 19.5 ± 2.4 µg/mL (≈ 19.4 µM) | – | +5.2 | 53% | 8% | 38% | 31% | oil-in-water (o/w) and o/w | – | –
4 | CCCCCCCC(CC(=O)NC(CO)C(=O)NC(CO)CC(C)C)OC(=O)CC(CCCCCCC)OC(=O)CC(CCCCCCC)OC1OC(C)C(O)C(OC2OC(C)C(O)C(OC(C)=O)C2O)C1O (stereo not drawn) [NB-RLP1048B] | 0.09 wt % | 0.85 mM | 36.9 mN/m | 64 to 128 µg/mL | 19.3 ± 4 µg/mL (≈ 18.4 µM) | 32 µg/mL | 18.7 ± 1.6 µg/mL (≈ 17.8 µM) | poor aqueous solubility | – | – | – | – | – | – | – | –
5 | Zinc pyrithione [reference compound] | – | – | – | 1 µg/mL | – | 4 µg/mL | – | – | – | – | – | – | – | – | 0.20 ± 0.001 µg/mL | 2.2 ± 0.3 µg/mL
